# Laboratory results reported in PubChem BioAssay (NCI).
#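 Test compounds were applied to cells in 96-well plates for 48 hours at 5 doses. TGI marks complete inhibition of growth.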
# Tests used:
# Experiment in all cases: NCI tumour cell line growth inhibition, 48 h
# [1] = system: OVCAR-5 ovarian
# [2] = system: HOP-62 NSCLC
# [3] = system: UO-31 renal
# [4] = system: K-562 leukemia
# [5] = system: HT29 colon
# [6] = system: SNB-75 CNS
# [7] = system: SK-MEL-2 melanoma
# [8] = system: DLD-1 colon
# [9] = system: ACHN renal
# [10] = system: M14 melanoma
# [11] = system: U251 CNS
# [12] = system: M19-MEL melanoma
# [13] = system: UACC-62 melanoma
# [14] = system: NCI-H23 lung
# [15] = system: RPMI-8226 leukemia
# [16] = system: HCT-116 colon
# [17] = system: EKVX NSCLC
# [18] = system: MALME-3M melanoma
# [19] = system: NCI-H522 lung
# [20] = system: TK-10 renal
# [21] = system: SW-620 colon
# [22] = system: HCC-2998 colon
# [23] = system: OVCAR-4 ovarian
# [24] = system: MOLT-4 leukemia
# [25] = system: SK-OV-3 ovarian
# [26] = system: SF-295 CNS
# [27] = system: SNB-19 CNS
# [28] = system: HL-60(TB) leukemia
# [29] = system: SN12C renal
# [30] = system: A498 renal
# [31] = system: SR leukemia
# [32] = system: UACC-257 melanoma
# [33] = system: DMS 273 small cell lung
# [34] = system: SNB-78 CNS
# [35] = system: DMS 114 small cell lung
# [36] = system: HOP-18 NSCLC
# [37] = system: RXF-631 renal
# [38] = system: LXFL 529 NSCLC
# [39] = system: OVCAR-3 ovarian
# [40] = system: SF-268 CNS
# [41] = system: 786-0 renal
# [42] = system: HOP-92 NSCLC
# [43] = system: SK-MEL-28 melanoma
# [44] = system: OVCAR-8 ovarian
# [45] = system: RXF 393 renal
# [46] = system: HCT-15 colon
# [47] = system: KM12 colon
# [48] = system: COLO 205 colon
# [49] = system: IGROV1 ovarian
# [50] = system: CAKI-1 renal
# [51] = system: A549 NSCLC
# [52] = system: LOX IMVI melanoma
# [53] = system: NCI-H226 lung
# [54] = system: KM20L2 colon
# [55] = system: CCRF-CEM leukemia
# [56] = system: XF 498 CNS
# [57] = system: SK-MEL-5 melanoma
# [58] = system: NCI-H460 lung
# [59] = system: SF-539 CNS
# [60] = system: NCI/ADR-RES ovarian
# [61] = system: P388/ADR leukemia
# [62] = system: MCF7 breast
# [63] = system: P388 leukemia
# [64] = system: SN12K1 renal
compound,measurement,setting,value
CCCCCCCC(=O)OC(CBr)COC(=O)C(C)(C)C (centres undefined),TGI,[1],> 100 µM
same,TGI,[2],> 100 µM
same,TGI,[3],> 100 µM
same,TGI,[4],> 100 µM
same,TGI,[5],> 100 µM
same,TGI,[6],68.8 µM
same,TGI,[7],> 100 µM
same,TGI,[8],> 100 µM
same,TGI,[9],> 100 µM
same,TGI,[10],> 100 µM
same,TGI,[11],> 100 µM
same,TGI,[12],> 100 µM
same,TGI,[13],> 100 µM
same,TGI,[14],> 100 µM
same,TGI,[15],> 71.2 µM
same,TGI,[16],> 100 µM
same,TGI,[17],> 100 µM
same,TGI,[18],> 100 µM
same,TGI,[19],> 100 µM
same,TGI,[20],> 100 µM
same,TGI,[21],> 100 µM
same,TGI,[22],> 100 µM
same,TGI,[23],> 100 µM
same,TGI,[24],75.2 µM
same,TGI,[25],> 100 µM
same,TGI,[26],> 100 µM
same,TGI,[27],> 100 µM
same,TGI,[28],> 100 µM
same,TGI,[29],> 100 µM
same,TGI,[30],> 100 µM
same,TGI,[31],57.1 µM
same,TGI,[32],> 100 µM
same,TGI,[33],> 100 µM
same,TGI,[34],> 100 µM
same,TGI,[35],> 100 µM
same,TGI,[36],> 100 µM
same,TGI,[37],> 100 µM
same,TGI,[38],> 100 µM
same,TGI,[39],> 100 µM
same,TGI,[40],> 100 µM
same,TGI,[41],> 100 µM
same,TGI,[42],> 100 µM
same,TGI,[43],> 100 µM
same,TGI,[44],> 100 µM
same,TGI,[45],> 100 µM
same,TGI,[46],> 100 µM
same,TGI,[47],> 100 µM
same,TGI,[48],> 100 µM
same,TGI,[49],> 100 µM
same,TGI,[50],> 100 µM
same,TGI,[51],> 100 µM
same,TGI,[52],> 100 µM
same,TGI,[53],> 100 µM
same,TGI,[54],> 100 µM
same,TGI,[55],> 87.2 µM
same,TGI,[56],> 100 µM
same,TGI,[57],> 100 µM
same,TGI,[58],> 100 µM
O=C(NCCCCCCNC(=O)n1cc(F)c(=O)[nH]c1=O)NCCCOCCOCCCNC(=O)C(O)C(O)C(O)C(O)CO (centres undefined),TGI,[59],> 2.5 µM
same,TGI,[1],> 2.5 µM
same,TGI,[2],> 2.5 µM
same,TGI,[60],> 2.5 µM
same,TGI,[3],> 2.5 µM
same,TGI,[4],> 2.5 µM
same,TGI,[5],> 2.5 µM
same,TGI,[6],> 2.5 µM
same,TGI,[7],> 2.5 µM
same,TGI,[8],> 2.5 µM
same,TGI,[11],> 2.5 µM
same,TGI,[12],> 2.5 µM
same,TGI,[13],> 2.5 µM
same,TGI,[14],> 2.5 µM
same,TGI,[15],> 2.5 µM
same,TGI,[16],> 2.5 µM
same,TGI,[17],> 2.5 µM
same,TGI,[18],> 2.5 µM
same,TGI,[19],> 2.5 µM
same,TGI,[21],> 2.5 µM
same,TGI,[22],> 2.5 µM
same,TGI,[23],> 2.5 µM
same,TGI,[24],> 2.5 µM
same,TGI,[25],> 2.5 µM
same,TGI,[61],> 2.5 µM
same,TGI,[26],> 2.5 µM
same,TGI,[27],> 2.5 µM
same,TGI,[28],> 2.5 µM
same,TGI,[29],> 2.5 µM
same,TGI,[30],> 2.5 µM
same,TGI,[62],> 2.5 µM
same,TGI,[32],> 2.5 µM
same,TGI,[33],> 2.5 µM
same,TGI,[34],> 2.5 µM
same,TGI,[35],> 2.5 µM
same,TGI,[36],> 2.5 µM
same,TGI,[39],> 2.5 µM
same,TGI,[40],> 2.5 µM
same,TGI,[42],> 2.5 µM
same,TGI,[43],> 2.5 µM
same,TGI,[44],> 2.5 µM
same,TGI,[45],> 2.5 µM
same,TGI,[46],> 2.5 µM
same,TGI,[47],> 2.5 µM
same,TGI,[48],> 2.5 µM
same,TGI,[49],> 2.5 µM
same,TGI,[51],> 2.5 µM
same,TGI,[52],> 2.5 µM
same,TGI,[53],> 2.5 µM
same,TGI,[54],> 2.5 µM
same,TGI,[63],> 2.5 µM
same,TGI,[55],> 2.5 µM
same,TGI,[56],> 2.5 µM
same,TGI,[64],> 2.5 µM
same,TGI,[57],> 2.5 µM
same,TGI,[58],> 2.5 µM
